Data taken from US20240409548A1, “MODULATORS OF THE BETA-3 ADRENERGIC RECEPTOR USEFUL FOR THE TREATMENT OR PREVENTION OF DISORDERS RELATED THERETO” (Arena Pharmaceuticals, Inc., priority 2021, published 2024).
≈ marks a conversion by molar mass, not a printed value. Like-named read-outs stand apart in the source and are kept apart here.

What was measured:
[1] = Aqueous solubility at various pH values (pH-solubility fit); details: for aqueous solubility: A=active free base
Method: Solubility of Compound A in aqueous media was measured at various pH values. The conjugate acid ionization constant and intrinsic solubility of the free base were derived by fitting the measured pH-solubility data to the slope-intercept form of the Henderson-Hasselbalch equation for monobasic molecules.

[2] = Dynamic moisture sorption (DMS); type: physicochemical
Method: Dynamic Moisture Sorption analysis was performed using a TA Instruments Q5000 SA (EQ2418). The sample was prepared for DMS analysis by placing ˜5 mg of compound into a tared sample holder.

[3] = slurry, ambient temperature
Method: (§1) Compound C was slurried in various solvents (Table 1) for 2 weeks at ambient temperature (21° C.±1° C.). […] Solubility was determined after 1 day of equilibration and slurries were allowed to stir for 2 weeks. The temperature was monitored and determined to be 21° C.±1° C. for the duration of the study. At the end of 2 weeks, the slurries were removed from stirring and solids were isolated by centrifuge filtration using 0.45-μm nylon filters, allowed to air-dry overnight, and then analyzed by PXRD. Selected samples were also analyzed by TGA and DSC.
X-ray diffraction analysis was performed using a PANalytical. X′Pert PRO MPD powder X-ray diffractometer (EQ0233). Samples were prepared by placing several milligrams of compound onto a sample holder and smoothing flat.

[4] = for Solubility (mM) / Solubility (mg/mL): 21° C.±1° C.
Method: as §1
Solubility was determined by gravimetric analysis after ˜24 hours of equilibration at ambient temperature (21° C.±1° C.). Samples were separated by centrifuge filtration using an Eppendorf 5417C model centrifuge. Suspension samples were placed into centrifuge filter tubes with 0.45-μm nylon membrane filter and spun at 10000 rpm for 1 minute. Filtrate aliquots of 10 to 20 μL were placed into separate thermogravimetric analyzer pans, previously tared on a TA Instruments Q5000. The filtrates were dried to achieve dry residual solid weights. Solubility was calculated by dividing the dry residual weight by the aliquot volume.

[5] = dimethyl sulfoxide (remained a solution), ~24 hours
[6] = methyl t-butyl ether, ~24 hours equilibration
[7] = water/acetone (1:20), ~24 hours
[8] = water/acetonitrile (1:20), ~24 hours
[9] = water/isopropyl alcohol (1:20), ~24 hours

## CCn1cc(S(=O)(=O)N2CCC3(CC2)C[C@@H](NC[C@H](O)COc2cccc(S(C)(=O)=O)c2)CO3)c(=O)c2ccccc21.CCn1cc(S(=O)(=O)N2CCC3(CC2)C[C@@H](NC[C@H](O)COc2cccc(S(C)(=O)=O)c2)CO3)c(=O)c2ccccc21.CS(=O)(=O)O.CS(=O)(=O)O.O [Compound A, 1-ethyl-3-((R)-3-((S)-2-hydroxy-3-(3-(methylsulfonyl)phenoxy)propylamino)-1-oxa-8-azaspiro[4.5]decan-8-ylsulfonyl)quinolin-4(1H)-one mesylate hemihydrate Form 2]
[1]
  aqueous solubility: about 28 mgA/mL
[1]; listed as mesylate salt
  aqueous solubility: 28 mgA/mL
[1]; associated with the mesylate salt
  pHmax: 5.7
[2]; DMS scan 0 to 90% RH, 25° C.
  hygroscopicity: non-hygroscopic
[2]; at 2500, after essentially fully rehydrating
  weight change between 30% RH and 90% RH (DMS): ~0.1%
[2]; condition 4000 and ~1% RH until steady weight in ~1 hour
  total weight change of water during the drying step (DMS): about 0.35%
[3]; listed as Form 2
  crystal form stability / conversion: does not convert to any other form at ambient temperature
[4]; Acetone, ~24 hours
  Solubility (mM): 0.61 mM
  Solubility (mg/mL): 0.44 mg/mL
[4]; Acetonitrile, ~24 hours
  Solubility (mM): 2.31 mM
  Solubility (mg/mL): 1.66 mg/mL
[4]; Tetrahydrofuran, ~24 hours
  Solubility (mM): 0.39 mM
  Solubility (mg/mL): 0.28 mg/mL
[4]; Water, ~24 hours
  Solubility (mM): 52.6 mM
  Solubility (mg/mL): 30.5 mg/mL
[4]; [5]
  Solubility (mM): >610 mM
  Solubility (mg/mL): >437 mg/mL
[4]; ethyl acetate, ~24 hours
  Solubility (mM): 0.88 mM
  Solubility (mg/mL): 0.63 mg/mL
[4]; ethyl alcohol, ~24 hours
  Solubility (mM): 1.03 mM
  Solubility (mg/mL): 0.73 mg/mL
[4]; in methanol, dimethyl sulfoxide, and aqueous systems (high solubility)
  solubility: > 20000 µM
[4]; in most organic solvents (low solubility)
  solubility: ≤ 1000 µM
[4]; isopropyl alcohol, ~24 hours
  Solubility (mM): 1.01 mM
  Solubility (mg/mL): 0.72 mg/mL
[4]; methyl alcohol, ~24 hours
  Solubility (mM): 21.6 mM
  Solubility (mg/mL): 15.5 mg/mL
[4]; methyl ethyl ketone, ~24 hours
  Solubility (mM): 0.99 mM
  Solubility (mg/mL): 0.71 mg/mL
[4]; [6]
  Solubility (mM): 0.76 mM
  Solubility (mg/mL): 0.54 mg/mL
[4]; [7]
  Solubility (mM): 47.3 mM
  Solubility (mg/mL): 33.9 mg/mL
[4]; [8]
  Solubility (mM): 97.0 mM
  Solubility (mg/mL): 69.5 mg/mL
[4]; [9]
  Solubility (mM): 29.4 mM
  Solubility (mg/mL): 21.2 mg/mL

## CCn1cc(S(=O)(=O)N2CCC3(CC2)C[C@@H](NC[C@H](O)COc2cccc(S(C)(=O)=O)c2)CO3)c(=O)c2ccccc21.CCn1cc(S(=O)(=O)N2CCC3(CC2)C[C@@H](NC[C@H](O)COc2cccc(S(C)(=O)=O)c2)CO3)c(=O)c2ccccc21.CS(=O)(=O)O.CS(=O)(=O)O.O [Compound B, 1-ethyl-3-((R)-3-((S)-2-hydroxy-3-(3-(methylsulfonyl)phenoxy)propylamino)-1-oxa-8-azaspiro[4.5]decan-8-ylsulfonyl)quinolin-4(1H)-one mesylate hemihydrate Form 1]
[3]; listed as Form 1
  crystal form stability / conversion: converts to Form 2 in water

## CCn1cc(S(=O)(=O)N2CCC3(CC2)C[C@@H](NC[C@H](O)COc2cccc(S(C)(=O)=O)c2)CO3)c(=O)c2ccccc21 [Compound D, 1-ethyl-3-((R)-3-((S)-2-hydroxy-3-(3-(methylsulfonyl)phenoxy)propylamino)-1-oxa-8-azaspiro[4.5]decan-8-ylsulfonyl)quinolin-4(1H)-one]
[1]
  pKa: 7.44
[1]; aqueous buffer
  solubility: 530 µg/mL (≈ 855 µM)
